From EP4635500A1, “THERAPEUTIC AGENT FOR BACTERIAL INFECTION” (Sumitomo Pharma Co., Ltd., priority 2022, dated 2024)
Converted amounts (≈) assume the structure as drawn. Like-named read-outs stand apart in the source and are kept apart here.

System: Enterobacterales
Assay: MIC, broth microdilution, CDC/FDA Antibiotic Resistance Isolate Bank (Example 7, Tables 8, 11, 12)
Assay type: cell-based

## C[C@@H](O)[C@H]1C(=O)N2C(C(=O)O)=C(S[C@@H]3CN[C@H](C(=O)N(C)C)C3)[C@H](C)[C@H]12 [MEPM, meropenem]
Escherichia coli, KUB No. 5783, AR Bank# 437, no carbapenemase genes, read-out: MIC
  MIC: ≤ 0.06 µg/mL
Escherichia coli, KUB No. 5794, AR Bank# 450, no carbapenemase genes, read-out: MIC
  MIC: 16 µg/mL (≈ 41.7 µM)
Escherichia coli, KUB No. 5796, AR Bank# 452, NDM-5, read-out: MIC
  MIC: 2 µg/mL (≈ 5.22 µM)
Klebsiella aerogenes, Enterobacter aerogenes, KUB No. 5559, AR Bank # 62, no carbapenemase gene, read-out: MIC
  MIC: 0.12 µg/mL (≈ 0.313 µM)
Klebsiella aerogenes, Enterobacter aerogenes, KUB No. 5571, AR Bank # 74, OXA-48, read-out: MIC
  MIC: 0.5 µg/mL (≈ 1.3 µM)
Klebsiella aerogenes, Enterobacter aerogenes, KUB No. 5658, AR Bank# 161, IMP-4, read-out: MIC
  MIC: 1 µg/mL (≈ 2.61 µM)
Klebsiella aerogenes, Enterobacter aerogenes, KUB No. 5777, AR Bank# 431, no carbapenemase genes, read-out: MIC
  MIC: ≤ 0.06 µg/mL
Klebsiella ornithinolytica
  MIC: 0.25 µg/mL (≈ 0.652 µM)
Klebsiella oxytoca, KUB No. 5568, AR Bank # 71, no carbapenemase gene, read-out: MIC
  MIC: 8 µg/mL (≈ 20.9 µM)
Klebsiella oxytoca, KUB No. 5644, AR Bank# 147, KPC-3, read-out: MIC
  MIC: 0.25 µg/mL (≈ 0.652 µM)
Klebsiella oxytoca, KUB No. 5771, AR Bank# 375, no carbapenemase genes, read-out: MIC
  MIC: ≤ 0.06 µg/mL
Klebsiella oxytoca, KUB No. 5776, AR Bank# 380, no carbapenemase genes, read-out: MIC
  MIC: 2 µg/mL (≈ 5.22 µM)
Klebsiella ozaenae, KUB No. 5548, AR Bank # 51, OXA-181, read-out: MIC
  MIC: 1 µg/mL (≈ 2.61 µM)
Klebsiella ozaenae, KUB No. 5593, AR Bank # 96, KPC-3, read-out: MIC
  MIC: 32 µg/mL (≈ 83.4 µM)
Klebsiella pnemnonice, KUB No. 5784, AR Bank# 438, KPC-3, read-out: MIC
  MIC: > 32 µg/mL
Klebsiella pneumoniae, KUB No. 5531, AR Bank # 34, IMP-4, read-out: MIC
  MIC: 0.25 µg/mL (≈ 0.652 µM)
Klebsiella pneumoniae, KUB No. 5536, AR Bank # 39, OXA-181, read-out: MIC
  MIC: 1 µg/mL (≈ 2.61 µM)
Klebsiella pneumoniae, KUB No. 5537, AR Bank # 40, VIM-27, read-out: MIC
  MIC: > 32 µg/mL
Klebsiella pneumoniae, KUB No. 5538, AR Bank # 41, NDM-1, read-out: MIC
  MIC: 8 µg/mL (≈ 20.9 µM)
Klebsiella pneumoniae, KUB No. 5540, AR Bank # 43, no carbapenemase gene, read-out: MIC
  MIC: 0.5 µg/mL (≈ 1.3 µM)
Klebsiella pneumoniae, KUB No. 5541, AR Bank # 44, no carbapenemase gene, read-out: MIC
  MIC: 2 µg/mL (≈ 5.22 µM)
Klebsiella pneumoniae, KUB No. 5543, AR Bank # 46, VIM-27, read-out: MIC
  MIC: 32 µg/mL (≈ 83.4 µM)
Klebsiella pneumoniae, KUB No. 5544, AR Bank # 47, no carbapenemase gene, read-out: MIC
  MIC: 4 µg/mL (≈ 10.4 µM)
Klebsiella pneumoniae, KUB No. 5546, AR Bank # 49, NDM-1, read-out: MIC
  MIC: 32 µg/mL (≈ 83.4 µM)
Klebsiella pneumoniae, KUB No. 5563, AR Bank # 66, OXA-232, read-out: MIC
  MIC: 8 µg/mL (≈ 20.9 µM)
Klebsiella pneumoniae, KUB No. 5565, AR Bank # 68, OXA-232, NDM-1, read-out: MIC
  MIC: > 32 µg/mL
Klebsiella pneumoniae, KUB No. 5573, AR Bank # 76, VIM-1, read-out: MIC
  MIC: 2 µg/mL (≈ 5.22 µM)
Klebsiella pneumoniae, KUB No. 5576, AR Bank # 79, no carbapenemase gene, read-out: MIC
  MIC: 4 µg/mL (≈ 10.4 µM)
Klebsiella pneumoniae, KUB No. 5577, AR Bank # 80, IMP-4, read-out: MIC
  MIC: 4 µg/mL (≈ 10.4 µM)
Klebsiella pneumoniae, KUB No. 5584, AR Bank # 87, no carbapenemase gene, read-out: MIC
  MIC: ≤ 0.06 µg/mL
Klebsiella pneumoniae, KUB No. 5594, AR Bank # 97, KPC-3, read-out: MIC
  MIC: 32 µg/mL (≈ 83.4 µM)
Klebsiella pneumoniae, KUB No. 5595, AR Bank # 98, KPC-2, read-out: MIC
  MIC: 8 µg/mL (≈ 20.9 µM)
Klebsiella pneumoniae, KUB No. 5603, AR Bank # 106, NDM-1, read-out: MIC
  MIC: > 32 µg/mL
Klebsiella pneumoniae, KUB No. 5604, AR Bank # 107, no carbapenemase gene, read-out: MIC
  MIC: 16 µg/mL (≈ 41.7 µM)
Klebsiella pneumoniae, KUB No. 5606, AR Bank # 109, no carbapenemase gene, read-out: MIC
  MIC: 8 µg/mL (≈ 20.9 µM)
Klebsiella pneumoniae, KUB No. 5609, AR Bank # 112, KPC-3, read-out: MIC
  MIC: 4 µg/mL (≈ 10.4 µM)
Klebsiella pneumoniae, KUB No. 5610, AR Bank # 113, KPC-3, read-out: MIC
  MIC: > 32 µg/mL
Klebsiella pneumoniae, KUB No. 5612, AR Bank # 115, KPC-3, read-out: MIC
  MIC: 8 µg/mL (≈ 20.9 µM)
Klebsiella pneumoniae, KUB No. 5614, AR Bank # 117, KPC-3, read-out: MIC
  MIC: 16 µg/mL (≈ 41.7 µM)
Klebsiella pneumoniae, KUB No. 5617, AR Bank # 120, KPC-2, read-out: MIC
  MIC: 16 µg/mL (≈ 41.7 µM)
Klebsiella pneumoniae, KUB No. 5622, AR Bank # 125, KPC-3, read-out: MIC
  MIC: 16 µg/mL (≈ 41.7 µM)
Klebsiella pneumoniae, KUB No. 5623, AR Bank # 126, KPC-2, read-out: MIC
  MIC: 4 µg/mL (≈ 10.4 µM)
Klebsiella pneumoniae, KUB No. 5626, AR Bank # 129, KPC-3, read-out: MIC
  MIC: 4 µg/mL (≈ 10.4 µM)
Klebsiella pneumoniae, KUB No. 5632, AR Bank# 135, VIM-1, read-out: MIC
  MIC: 0.5 µg/mL (≈ 1.3 µM)
Klebsiella pneumoniae, KUB No. 5635, AR Bank# 138, NDM-7, read-out: MIC
  MIC: > 32 µg/mL
Klebsiella pneumoniae, KUB No. 5636, AR Bank# 139, NDM-1, read-out: MIC
  MIC: 0.12 µg/mL (≈ 0.313 µM)
Klebsiella pneumoniae, KUB No. 5637, AR Bank# 140, OXA-181, read-out: MIC
  MIC: 1 µg/mL (≈ 2.61 µM)
Klebsiella pneumoniae, KUB No. 5639, AR Bank# 142, OXA-181, read-out: MIC
  MIC: 1 µg/mL (≈ 2.61 µM)
Klebsiella pneumoniae, KUB No. 5640, AR Bank# 143, NDM-L, read-out: MIC
  MIC: > 32 µg/mL
Klebsiella pneumoniae, KUB No. 5642, AR Bank# 145, NDM-1, read-out: MIC
  MIC: 8 µg/mL (≈ 20.9 µM)
Klebsiella pneumoniae, KUB No. 5643, AR Bank# 146, NDM-1, read-out: MIC
  MIC: 8 µg/mL (≈ 20.9 µM)
Klebsiella pneumoniae, KUB No. 5645, AR Bank# 148, NDM-1, read-out: MIC
  MIC: 8 µg/mL (≈ 20.9 µM)
Klebsiella pneumoniae, KUB No. 5650, AR Bank# 153, OXA-232, NDM-1, read-out: MIC
  MIC: > 32 µg/mL
Klebsiella pneumoniae, KUB No. 5655, AR Bank# 158, NDM-1, read-out: MIC
  MIC: 8 µg/mL (≈ 20.9 µM)
Klebsiella pneumoniae, KUB No. 5657, AR Bank# 160, OXA-48, read-out: MIC
  MIC: 8 µg/mL (≈ 20.9 µM)
Klebsiella pneumoniae, KUB No. 5757, AR Bank# 361, KPC-2, read-out: MIC
  MIC: 8 µg/mL (≈ 20.9 µM)
Klebsiella pneumoniae, KUB No. 5758, AR Bank# 362, KPC-2, read-out: MIC
  MIC: 8 µg/mL (≈ 20.9 µM)
Klebsiella pneumoniae, KUB No. 5759, AR Bank# 363, KPC-2, read-out: MIC
  MIC: 4 µg/mL (≈ 10.4 µM)
Klebsiella pneumoniae, KUB No. 5760, AR Bank# 364, no carbapenemase genes, read-out: MIC
  MIC: 1 µg/mL (≈ 2.61 µM)
Klebsiella pneumoniae, KUB No. 5772, AR Bank# 376, no carbapenemase genes, read-out: MIC
  MIC: 0.12 µg/mL (≈ 0.313 µM)
Klebsiella pneumoniae, KUB No. 5797, AR Bank# 453, KPC-3, read-out: MIC
  MIC: > 32 µg/mL
Klebsiella pneumoniae, KUB No. 5809, AR Bank# 504, OXA-48, read-out: MIC
  MIC: 4 µg/mL (≈ 10.4 µM)
Klebsiella pneumoniae, KUB No. 5810, AR Bank# 505, NDM-1, read-out: MIC
  MIC: 16 µg/mL (≈ 41.7 µM)
Klebsiella pneumoniae, KUB No. 5811, AR Bank# 506, NDM-1, read-out: MIC
  MIC: 16 µg/mL (≈ 41.7 µM)
Klebsiella pneumoniae, KUB No. 5812, AR Bank# 507, OXA-232, NDM-1, read-out: MIC
  MIC: > 32 µg/mL
Klebsiella pneumoniae, KUB No. 5827, AR Bank# 522, KPC-2, read-out: MIC
  MIC: 8 µg/mL (≈ 20.9 µM)
Klebsiella pneumoniae, KUB No. 5828, AR Bank# 523, KPC-2 (row continued in Table 8-7), read-out: MIC
  MIC: 16 µg/mL (≈ 41.7 µM)
Klebsiella pneumoniae, KUB No. 5829, AR Bank# 524, KPC-3, read-out: MIC
  MIC: 16 µg/mL (≈ 41.7 µM)
Klebsiella pneumoniae, KUB No. 5830, AR Bank# 525, KPC-11, read-out: MIC
  MIC: 8 µg/mL (≈ 20.9 µM)
Klebsiella pneumonice, KUB No. 5649, AR Bank# 152, NDM-1, read-out: MIC
  MIC: 8 µg/mL (≈ 20.9 µM)
Kluyvera ascorbata
  MIC: 2 µg/mL (≈ 5.22 µM)
Morganella morganii, KUB No. 5630, AR Bank# 133, KPC-2, read-out: MIC
  MIC: 1 µg/mL (≈ 2.61 µM)
Morganella morganii, KUB No. 5824, AR Bank# 519, no carbapenemase genes, read-out: MIC
  MIC: 2 µg/mL (≈ 5.22 µM)
Proteus mirabilis, KUB No. 5556, AR Bank # 59, no carbapenemase gene, read-out: MIC
  MIC: 0.12 µg/mL (≈ 0.313 µM)
Proteus mirabilis, KUB No. 5652, AR Bank# 155, KPC-6, read-out: MIC
  MIC: 1 µg/mL (≈ 2.61 µM)
Proteus mirabilis, KUB No. 5653, AR Bank# 156, KPC-2, read-out: MIC
  MIC: 0.12 µg/mL (≈ 0.313 µM)
Proteus mirabilis, KUB No. 5656, AR Bank# 159, NDM-1, read-out: MIC
  MIC: 2 µg/mL (≈ 5.22 µM)
Proteus mirabilis, KUB No. 5773, AR Bank# 377, KPC-3, read-out: MIC
  MIC: 1 µg/mL (≈ 2.61 µM)
Proteus mirabilis, KUB No. 5775, AR Bank# 379, no carbapenemase genes, read-out: MIC
  MIC: ≤ 0.06 µg/mL
Providencia rettgeri
  MIC: 8 µg/mL (≈ 20.9 µM)
Salmonella enterica
  MIC: 16 µg/mL (≈ 41.7 µM)
Serratia marcescens, KUB No. 5588, AR Bank # 91, SME-3, read-out: MIC
  MIC: 16 µg/mL (≈ 41.7 µM)
Serratia marcescens, KUB No. 5596, AR Bank # 99, SME-3, read-out: MIC
  MIC: 16 µg/mL (≈ 41.7 µM)
Serratia marcescens, KUB No. 5618, AR Bank # 121, SME-3, read-out: MIC
  MIC: 16 µg/mL (≈ 41.7 µM)
Serratia marcescens, KUB No. 5619, AR Bank # 122, SME-3, read-out: MIC
  MIC: 32 µg/mL (≈ 83.4 µM)
Serratia marcescens, KUB No. 5620, AR Bank # 123, SME-3, read-out: MIC
  MIC: 2 µg/mL (≈ 5.22 µM)
Serratia marcescens, KUB No. 5621, AR Bank # 124, SME-3, read-out: MIC
  MIC: 32 µg/mL (≈ 83.4 µM)
Serratia marcescens, KUB No. 5627, AR Bank # 130, SME-3, read-out: MIC
  MIC: 8 µg/mL (≈ 20.9 µM)
Serratia marcescens, KUB No. 5628, AR Bank # 131, SME-3, read-out: MIC
  MIC: 0.5 µg/mL (≈ 1.3 µM)
Serratia marcescens, KUB No. 5822, AR Bank# 517, KPC-3, read-out: MIC
  MIC: 8 µg/mL (≈ 20.9 µM)
Serratia marcescens, KUB No. 5825, AR Bank# 520, no carbapenemase genes, read-out: MIC
  MIC: ≤ 0.06 µg/mL
Serratia marcescens, KUB No. 5826, AR Bank# 521, no carbapenemase genes, read-out: MIC
  MIC: ≤ 0.06 µg/mL
